# Results from US20250270209A1 (INTERLINE THERAPEUTICS, INC., priority 2022, published 2025).
# Tests used:
# LRRK2 wild type enzyme = LRRK2 wild type enzyme (Homo sapiens, UniProt Q5S007); assay: Biochemical Assay: LRRK2 TR-FRET (LanthaScreen) kinase assay with LRRKtide substrate; conditions: LRRK2 Inhibition, Table 8
# Method: 10 mM compound solution was prepared in DMSO. An 11-point, 3-fold dilution was performed, with highest concentration at 10 μM. A 10 mM compound DMSO solution was added to Labcyte LDV plate and the compound concentration of source plate was 10 mM. The 1st compound concentration of Inter plate(Labcyte 384 well PP plate) was 4.938×10^−1 mM which was prepared by transferring 1.5 μL of 10 mM compound from source plate to 28.9 μL DMSO. The 2nd compound concentration of Inter plate was 1.829×10^−2 mM which was prepared by transferring 60 nL of 10 mM compound from source plate to 32.7 μL DMSO. The 3rd compound concentration of Inter plate was 6.774×10^−4 mM which was prepared by transferring 2.5 nL of 10 mM compound from source plate to 36.9 μL DMSO. 100 nL of reference compound was dispensed in column 1 for low control wells and 100 nL of DMSO in column 24 for high control wells. Compounds were dispensed to column 2 to 23 of assay plate and backfilled with DMSO to a total volume of 100 nL.
# A 2X LRRK2 enzyme solution (final concentration 3 nM) was prepared in assay buffer (Tris-HCl pH8.0:50 mM, MgCl2: 5 mM, EDTA: 1 mM, Brij-35:0.01%, 2 mM DTT). A 2× substrate solution was prepared: LRRK2 tide substrate (final concentration 400 nM) and ATP (final concentration 25 μM) in assay buffer. 5 μL 2× LRRK2 enzyme solution was dispensed to each well in assay plate by Multidrop. Assay plate was spun at 1,000 rpm for 1 min and incubated for 15 min at 23° C. 5 μL 2× ATP/LRRKtide solution was dispensed to each well in assay plate by Multidrop. Assay plate was spun at 1,000 rpm for 1 min and incubated for 120 min at 23° C.
# (§1) A 2× detection solution was prepared: Tb-pERM (pLRRKtide) antibody (final concentration 0.25 nM) and EDTA (final concentration 10 mM) in TR-FRET dilution buffer. 10 μL 2× detection solution was dispensed to each well in assay plate to stop kinase reaction by Multidrop. Assay plate was spun at 1,000 rpm for 1 min and incubate for 30 min at 23° C. Assay plate was then read on Envision configured for LanthaScreen® TR-FRET. pS935 LRRK2 Cell Assay
# [1] = target: T1, wild type LRRK2 overexpressed in recombinant HEK-293T cells (Homo sapiens, UniProt Q5S007); assay: pS935 LRRK2 Cell Assay (HTRF, phospho-LRRK2 Ser935); assay type: cell-based; conditions: LRRK2 Inhibition, Table 8, 2 hours compound incubation
# T1 construct: host or cells: HEK293T (transient transfection with pCMV-LRRK2 WT plasmid)
# T1 sequence (Q5S007 whole entry): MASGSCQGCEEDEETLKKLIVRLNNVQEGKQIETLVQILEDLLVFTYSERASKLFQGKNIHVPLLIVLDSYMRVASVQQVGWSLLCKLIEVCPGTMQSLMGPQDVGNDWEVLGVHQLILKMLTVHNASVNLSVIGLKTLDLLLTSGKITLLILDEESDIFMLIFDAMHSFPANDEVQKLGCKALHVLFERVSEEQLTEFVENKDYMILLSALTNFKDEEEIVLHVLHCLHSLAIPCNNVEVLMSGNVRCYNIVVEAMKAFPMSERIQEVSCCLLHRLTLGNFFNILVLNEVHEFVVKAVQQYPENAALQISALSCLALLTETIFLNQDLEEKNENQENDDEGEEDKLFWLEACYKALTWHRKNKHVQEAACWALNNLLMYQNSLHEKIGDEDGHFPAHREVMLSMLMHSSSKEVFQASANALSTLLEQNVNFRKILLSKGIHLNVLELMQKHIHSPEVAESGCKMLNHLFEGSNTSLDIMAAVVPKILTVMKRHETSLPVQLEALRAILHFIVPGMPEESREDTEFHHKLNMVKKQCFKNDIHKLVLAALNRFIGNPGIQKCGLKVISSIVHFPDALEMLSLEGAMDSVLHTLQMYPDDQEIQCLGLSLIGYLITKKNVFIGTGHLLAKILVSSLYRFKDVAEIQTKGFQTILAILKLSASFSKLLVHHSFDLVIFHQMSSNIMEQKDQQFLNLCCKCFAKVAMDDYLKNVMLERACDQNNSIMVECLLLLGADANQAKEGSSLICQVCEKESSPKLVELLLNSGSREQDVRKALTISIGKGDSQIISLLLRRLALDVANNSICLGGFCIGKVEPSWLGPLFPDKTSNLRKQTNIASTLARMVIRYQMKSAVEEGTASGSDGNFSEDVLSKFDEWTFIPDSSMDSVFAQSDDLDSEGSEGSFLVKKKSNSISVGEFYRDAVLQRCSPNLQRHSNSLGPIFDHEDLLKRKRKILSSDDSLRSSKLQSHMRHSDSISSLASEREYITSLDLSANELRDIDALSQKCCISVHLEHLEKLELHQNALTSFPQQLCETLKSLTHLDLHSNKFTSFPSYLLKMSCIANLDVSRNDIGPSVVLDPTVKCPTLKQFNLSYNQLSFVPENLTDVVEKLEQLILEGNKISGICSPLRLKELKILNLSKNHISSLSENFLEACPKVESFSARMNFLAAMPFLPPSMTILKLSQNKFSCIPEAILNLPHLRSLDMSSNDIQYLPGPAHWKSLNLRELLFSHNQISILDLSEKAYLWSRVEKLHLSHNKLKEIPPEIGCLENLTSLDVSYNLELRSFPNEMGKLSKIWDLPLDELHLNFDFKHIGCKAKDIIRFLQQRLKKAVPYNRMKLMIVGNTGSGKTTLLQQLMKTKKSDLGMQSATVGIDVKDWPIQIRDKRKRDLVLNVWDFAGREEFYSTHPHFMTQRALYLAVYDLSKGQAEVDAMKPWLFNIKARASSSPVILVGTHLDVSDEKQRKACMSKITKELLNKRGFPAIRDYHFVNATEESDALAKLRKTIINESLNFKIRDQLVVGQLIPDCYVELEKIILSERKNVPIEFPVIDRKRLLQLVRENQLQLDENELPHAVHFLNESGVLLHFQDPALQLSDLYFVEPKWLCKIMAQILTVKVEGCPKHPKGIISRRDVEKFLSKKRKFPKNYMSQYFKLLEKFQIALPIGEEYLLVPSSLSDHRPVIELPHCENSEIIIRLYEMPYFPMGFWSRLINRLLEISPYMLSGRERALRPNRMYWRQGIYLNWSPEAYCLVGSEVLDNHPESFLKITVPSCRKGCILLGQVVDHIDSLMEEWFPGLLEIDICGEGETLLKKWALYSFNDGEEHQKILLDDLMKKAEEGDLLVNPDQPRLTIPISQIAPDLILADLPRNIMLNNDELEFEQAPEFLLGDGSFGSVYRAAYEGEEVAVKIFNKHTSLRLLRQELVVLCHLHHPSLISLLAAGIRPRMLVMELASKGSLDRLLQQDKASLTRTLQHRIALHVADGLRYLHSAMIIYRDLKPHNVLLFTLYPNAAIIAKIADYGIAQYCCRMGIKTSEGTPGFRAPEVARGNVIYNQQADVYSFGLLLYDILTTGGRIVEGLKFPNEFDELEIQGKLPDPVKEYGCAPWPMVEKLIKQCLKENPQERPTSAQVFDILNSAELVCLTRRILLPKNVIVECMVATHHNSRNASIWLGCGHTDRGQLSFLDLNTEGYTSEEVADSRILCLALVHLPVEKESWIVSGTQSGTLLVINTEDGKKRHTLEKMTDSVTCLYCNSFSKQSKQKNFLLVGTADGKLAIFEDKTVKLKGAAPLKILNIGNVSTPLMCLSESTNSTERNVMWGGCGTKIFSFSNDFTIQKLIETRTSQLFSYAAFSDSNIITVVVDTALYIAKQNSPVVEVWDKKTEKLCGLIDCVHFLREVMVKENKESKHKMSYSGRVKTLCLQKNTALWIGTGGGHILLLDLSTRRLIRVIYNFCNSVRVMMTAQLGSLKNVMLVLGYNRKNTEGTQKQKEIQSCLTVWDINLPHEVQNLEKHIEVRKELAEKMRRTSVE
# Method: as §1
# The following protocol describes an in-vitro method for measuring phosphorylation at Ser935 on wild type LRRK2 overexpressed in recombinant HEK-293T cells. The method is based on HTRF technology, which combines Fluorescence Resonance Energy Transfer (FRET) with Time-Resolved measurement (TR). Phospho-LRRK2 (Ser935) is detected in a sandwich assay format using two different specific antibodies, one labelled with Eu3+-Cryptate (donor) and the second with d2(acceptor).When the fluorophores are in close proximity, excitation of the donor with a light source (flash lamp) stimulates FRET to the acceptor, which in turn fluoresces at a specific wavelength (665 nm). The fluorescence emission at 615 nm from the donor is also measured to allow ratiometric reduction of data. The specific signal is proportional to phospho-LRRK2 (Ser935).
# Plasmid transient transfection: DMEM medium, FBS, DPBS, Trans-IT, OPTI-MEM reagents were allowed to warm to room temperature. HEK293T cells were cultured in DMEM +10% FBS complete medium in T150 flasks till around 80% confluency before transfection. Then cells were washed with 10 mL PBS and detached with 3 mL 0.25% typinsin. 30×10E6 HEK293T cells were seeded in DMEM +10% FBS complete medium to a 15 cm dish.
# DNA, TransIT-LT1, OPTI-MEM complex were prepared: […] OPTI-MEM was added to a 15 mL cone tube, then […] plasmid was added to OPTI-MEM and mixed, followed by addition of 60 μL TransIT-LT1 to the plasmid OPTI-MEM mixture and mixing. The resulting mixture was incubated for 15 minutes.
# The above plasmid, DNA and OPTI-MEM mixture was added dropwise to the 15 cm dish, ensuring the drops were evenly distributed. The culture dish was gently rocked back and forth and from left to right to evenly distribute the complex. The tranfected dish was incubated for 24 hours at 37° C., and 5% CO2.
# Transfected HEK293T was collected in the 15 cm dish. Media was aspirated from tissue culture dish, and washed by dispensing 10 mL 1× DPBS into 15 cm dish. 1× DPBS was aspirated and 3 mL trypsin was dispensed to 15 cm dish. The dish was incubated with trypsin at room temperature for 3 min until the cells were detached. 10 mL of DMEM +10% FBS medium were added to 15 cm dish and triturated to ensure homogenous cell suspensions.
# Homogenous cell suspensions were transferred to a 50 mL tube, and centrifuged for 5 minutes at 1,000 rmp/min. The supernatant was aspirated and resuspended with 20 mL complete medium. 1 mL of cell suspension was transferred for cell counting. The cell suspension was diluted to 2× 10E5 cells/ml. 50 μL cell suspensions were added to a 384-well plate. The plate was quick spun at 800 rpm for 1 minute, then incubate overnight at 37° C., 5% CO2.
# Compound dispensing: compound was diluted (10 mM DMSO stock solution) and added to assay plate (top concentration: 10 μM, 3 fold serial dilution, 9 doses) with duplicates by Tecan liquid handler. The DMSO concentration of each well was normalized to 0.2%. Plates were quick spun at 1,000 rpm for 1 minute. Plates were incubated at 37° C., 5% CO2 for 2 hours.
# 1× lysis buffer solution supplemented with blocking reagent was prepared (e.g. 1 mL lysis buffer 4X+3 mL water+40 μL stock blocking reagent 100X). Antibodies working solution was prepared by diluting 40-fold d2 and Cryptate antibodies with detection buffer(e.g. 1520 μL detection buffer+40 μL d2-antibody stock solution+[…] Cryptate-antibody stock solution).
# After 2 hours incubation, cell plates were taken out from the incubator. […]
# Sequence of LRRK2 wild type enzyme (Q5S007 whole entry): as above
SMILES,IC50 (LRRK2 wild type enzyme) [nM],IC50 [1] [nM]
"C[C@@H]1C[C@H](n2c(CC(=O)NCc3ccncc3)nc3cnc4ccc(C#N)cc4c32)CCO1 [Compound 15, 2-{8-cyano-1-[(2R,4R)-2-methyloxan-4-yl]-1H-imidazo[4,5-c]quinolin-2-yl}-N-[(pyridin-4-yl)methyl]acetamide]",0.294,15.8
"C[C@@H]1C[C@H](n2c(CC(N)=O)nc3cnc4ccc(C#N)cc4c32)CCO1 [Compound 16, 2-{8-cyano-1-[(2R,4R)-2-methyloxan-4-yl]-1H-imidazo[4,5-c]quinolin-2-yl}acetamide]",1.15,146
"C[C@@H]1C[C@H](n2c(CNC(=O)C3CC3)nc3cnc4ccc(C#N)cc4c32)CCO1 [Compound 17, N-({8-cyano-1-[(2R,4R)-2-methyloxan-4-yl]-1H-imidazo[4,5-c]quinolin-2-yl}methyl)cyclopropanecarboxamide]",6.61,477
"C[C@@H]1C[C@H](n2c(CNC(=O)CC3CC3)nc3cnc4ccc(C#N)cc4c32)CCO1 [Compound 18, N-({8-cyano-1-[(2R,4R)-2-methyloxan-4-yl]-1H-imidazo[4,5-c]quinolin-2-yl}methyl)-2-cyclopropylacetamide]",2.58,182
"C[C@@H]1C[C@H](n2c(CNC(=O)c3ccccn3)nc3cnc4ccc(C#N)cc4c32)CCO1 [Compound 19, N-({8-cyano-1-[(2R,4R)-2-methyloxan-4-yl]-1H-imidazo[4,5-c]quinolin-2-yl}methyl)pyridine-2-carboxamide]",0.591,22.9
"C[C@@H]1C[C@H](n2c(CNC(=O)c3cnn(C)c3)nc3cnc4ccc(C#N)cc4c32)CCO1 [Compound 20, N-({8-cyano-1-[(2R,4R)-2-methyloxan-4-yl]-1H-imidazo[4,5-c]quinolin-2-yl}methyl)-1-methyl-1H-pyrazole-4-carboxamide]",1.83,224
"C[C@@H]1C[C@H](n2c(CNS(C)(=O)=O)nc3cnc4ccc(C#N)cc4c32)CCO1 [Compound 21, N-({8-cyano-1-[(2R,4R)-2-methyloxan-4-yl]-1H-imidazo[4,5-c]quinolin-2-yl}methyl)methanesulfonamide]",5.18,641
"C[C@@H]1C[C@H](n2c(CNS(=O)(=O)C3CC3)nc3cnc4ccc(C#N)cc4c32)CCO1 [Compound 22, N-({8-cyano-1-[(2R,4R)-2-methyloxan-4-yl]-1H-imidazo[4,5-c]quinolin-2-yl}methyl)cyclopropanesulfonamide]",6.8,536
"CC(=O)NCc1nc2cnc3ccc(C#N)cc3c2n1[C@@H]1CCO[C@H](C)C1 [Compound 23, N-({8-cyano-1-[(2R,4R)-2-methyloxan-4-yl]-1H-imidazo[4,5-c]quinolin-2-yl}methyl)acetamide]",4.74,659
"C[C@@H]1C[C@H](n2c([C@@H]3CCN(S(=O)(=O)C4CC4)C3)nc3cnc4ccc(C#N)cc4c32)CCO1 [Compound 24, 2-[(3R)-1-(cyclopropanesulfonyl)pyrrolidin-3-yl]-1-[(2R,4R)-2-methyloxan-4-yl]-1H-imidazo[4,5-c]quinoline-8-carbonitrile]",5.4,677
"C[C@@H]1C[C@H](n2c([C@H]3CCN(S(=O)(=O)C4CC4)C3)nc3cnc4ccc(C#N)cc4c32)CCO1 [Compound 25, 2-[(3S)-1-(cyclopropanesulfonyl)pyrrolidin-3-yl]-1-[(2R,4R)-2-methyloxan-4-yl]-1H-imidazo[4,5-c]quinoline-8-carbonitrile]",6.13,563
"C[C@@H]1C[C@H](n2c([C@H]3CCN(C(=O)OC(C)(C)C)C3)nc3cnc4ccc(C#N)cc4c32)CCO1 [Compound 26, tert-butyl (3S)-3-{8-cyano-1-[(2R,4R)-2-methyloxan-4-yl]-1H-imidazo[4,5-c]quinolin-2-yl}pyrrolidine-1-carboxylate]",5.26,452
"C[C@@H]1C[C@H](n2c(C3CCN(C(=O)C4CC4)CC3)nc3cnc4ccc(C#N)cc4c32)CCO1 [Compound 27, 2-(1-cyclopropanecarbonylpiperidin-4-yl)-1-[(2R,4R)-2-methyloxan-4-yl]-1H-imidazo[4,5-c]quinoline-8-carbonitrile]",1.49,115
"C[C@@H]1C[C@H](n2c([C@@H]3CCCN(C(=O)C4CC4)C3)nc3cnc4ccc(C#N)cc4c32)CCO1 [Compound 28, 2-[(3R)-1-cyclopropanecarbonylpiperidin-3-yl]-1-[(2R,4R)-2-methyloxan-4-yl]-1H-imidazo[4,5-c]quinoline-8-carbonitrile]",12.3,773
"C[C@@H]1C[C@H](n2c([C@H]3CCCN(C(=O)C4CC4)C3)nc3cnc4ccc(C#N)cc4c32)CCO1 [Compound 29, 2-[(3S)-1-cyclopropanecarbonylpiperidin-3-yl]-1-[(2R,4R)-2-methyloxan-4-yl]-1H-imidazo[4,5-c]quinoline-8-carbonitrile]",135,4680
"C[C@@H]1C[C@H](n2c(CN)nc3cnc4ccc(C#N)cc4c32)CCO1 [Compound 32, 2-(aminomethyl)-1-[(2R,4R)-2-methyloxan-4-yl]-1H-imidazo[4,5-c]quinoline-8-carbonitrile]",5.55,425
"C[C@@H]1C[C@H](n2c(CNC(=O)OC(C)(C)C)nc3cnc4ccc(C#N)cc4c32)CCO1 [Compound 33, tert-butyl N-({8-cyano-1-[(2R,4R)-2-methyloxan-4-yl]-1H-imidazo[4,5-c]quinolin-2-yl}methyl)carbamate]",5.24,396
"C[C@@H]1C[C@H](n2c(C3CC(=O)N([C@H](C)C4CC4)C3)nc3cnc4ccc(C#N)cc4c32)CCO1 (stereo partly drawn) [Compound 34, 2-{1-[(1R)-1-cyclopropylethyl]-5-oxopyrrolidin-3-yl}-1-[(2R,4R)-2-methyloxan-4-yl]-1H-imidazo[4,5-c]quinoline-8-carbonitrile]",4.22,273
